What was measured:
HJ1299 cells = tested on: HJ1299 cells; parameters: method as in Tong et al. [2016]; details: treatment for 48 h, ref Tong et al. [2016]; cited from earlier work
A549 cells = tested on: A549 cells; parameters: method as in Tong et al. [2016]; details: treatment for 48 h, ref Tong et al. [2016]; cited from earlier work
HT29 cells = tested on: HT29 cells; parameters: method as in Tong et al. [2016]; details: treatment for 48 h, ref Tong et al. [2016]; cited from earlier work
[1] = Pharmacokinetic study in rats after single intravenous administration; format: in vivo; details: male, Sprague-Dawley, rat, plasma
Method: The applicability of the developed bioanalytical LC-MS/MS method was evaluated by quantitative determination of 1 D in rat plasma after single intravenous administration. All experimental procedures and animal care were performed following approval from the Ethic Committee of Laboratory Animals of the Affiliated Hospital of Qingdao University. Six male Sprague–Dawley rats, weighing 200 ± 15 g, were obtained from Beijing Vital River Experimental Animal Co. Ltd (Beijing, China). The animals were quarantined for 1 week prior to the study and were maintained on a 12 h light/12 h dark cycle at 22 ± 2 °C and at 50 ± 10% relative humidity. The rodents were given a commercial rat chow and water ad libitum. An intravenous dose of 5 mg/kg was selected based on our previous toxicological and pharmacodynamic studies in rats (unpublished data). The administration solution was prepared by dissolving 1 D in PEG400: PG400: DMSO: saline (30: 30: 1: 39, v/v/v/v) to give a concentration of 2 mg/mL. After fasting overnight, rats were given the prepared administration solution at 5 mg/kg via the tail vein. Blood samples (0.2 mL) were collected into heparinized tubes by retro-orbital puncture at 0 (pre-dose), 5, 10, 20, 30, and 45 min, and 1, 1.5, 2, 4, 8, 12, and 24 h after dosing. Plasma was separated by centrifugation at 4500 rpm for 10 min and stored at −20 °C until analysis. The pharmacokinetic parameters including area under the concentration-time curve (AUC), apparent volume of distribution (Vz), elimination half-life (t1/2), and clearance (CLz) were calculated by a non-compartmental analysis method using the DAS 3.0.2 pharmacokinetic programme. As observable parameters, the maximum plasma concentration (Cmax) and the time to reach the maximum concentration (Tmax) were obtained directly.

HCT116 cells = tested on: HCT116 cells; parameters: method as in Tong et al. [2016]; details: treatment for 48 h, ref Tong et al. [2016]; cited from earlier work
[2] = Stability of 1 D in rat plasma under various storage conditions; format: in vitro ADME; details: for Accuracy / Measured concentration (mean ± SD): n = 5
Method: The stability of 1 D in rat plasma was evaluated in five replicates at three QC levels under various storage conditions. […] Short-term and long-term stability were evaluated by storing plasma samples at room temperature for 6 h and −20 °C for 1 month before sample preparation. Freeze-thaw stability of QC samples was assessed after three freeze-thaw cycles (−20 to 25 °C). Autosampler stability was evaluated by keeping the extracted plasma samples in the autosampler for 24 h before analysis. Samples were considered to be stable if assay values were within the acceptable limits of accuracy (±15%) and precision (15% RSD).

[3] = single intravenous 5 mg/kg, n = 6
[4] = extracted rat plasma, spiked 10 ng/mL, autosampler for 24 h
[5] = extracted rat plasma, spiked 100 ng/mL, autosampler for 24 h
[6] = extracted rat plasma, spiked 500 ng/mL, autosampler for 24 h
[7] = rat plasma, spiked 10 ng/mL, 4 weeks at −20 °C
[8] = rat plasma, spiked 10 ng/mL, 6 h at 25 °C
[9] = rat plasma, spiked 10 ng/mL, three freeze-thaw cycles
[10] = rat plasma, spiked 100 ng/mL, 4 weeks at −20 °C
[11] = rat plasma, spiked 100 ng/mL, 6 h at 25 °C
[12] = rat plasma, spiked 100 ng/mL, three freeze-thaw cycles
[13] = rat plasma, spiked 500 ng/mL, 4 weeks at −20 °C
[14] = rat plasma, spiked 500 ng/mL, 6 h at 25 °C
[15] = rat plasma, spiked 500 ng/mL, three freeze-thaw cycles

**Q.** With `Br.COc1ccc(/C=C/c2cc(/C=C/c3ccc(OC)cc3)nc(OCCCCSC(=N)N)n2)cc1` [1 D, (E,E)-4-(4,6-bis(4-methoxystyryl)pyrimidin-2-yloxy)butyl carbamimidothioate hydrobromide] as the compound, how does the IC50 (HJ1299 cells) read?
**A.** 0.92 µM

**Q.** What about the IC50 (A549 cells) of the same compound?
**A.** 0.99 µM

**Q.** What about the IC50 (HT29 cells) of the same compound?
**A.** 0.79 µM

**Q.** What about the AUC(0-t) ([1]; 5 mg/kg, intravenous administration, non-compartmental (abstract)) of the same compound?
**A.** 0.807 µg·h/mL

**Q.** What about the Cmax [1, 3] of the same compound?
**A.** 0.61 µg/mL

**Q.** What about the Tmax [1, 3] of the same compound?
**A.** 4.8 min

**Q.** What about the AUC(0-inf) ([1]; single intravenous 5 mg/kg, n = 6, non-compartmental) of the same compound?
**A.** 0.853 µg·h/mL

**Q.** And the clearance ([1]; single intravenous 5 mg/kg, n = 6, read-out: CLz (clearance) (converted))?
**A.** 6.33 L/h/kg

**Q.** What about the MRT last ([1]; single intravenous 5 mg/kg, n = 6, read-out: MRT(0−t)) of the same compound?
**A.** 3.4 h

**Q.** And the MRT inf ([1]; single intravenous 5 mg/kg, n = 6, read-out: MRT(0−∞))?
**A.** 4.7 h

**Q.** What about the Vd ([1]; single intravenous 5 mg/kg, n = 6, read-out: Vz (apparent volume of distribution)) of the same compound?
**A.** 46.6 L/kg

**Q.** And the half-life ([1]; single intravenous 5 mg/kg, n = 6, read-out: t1/2 (elimination half-life) (converted))?
**A.** 4.92 h

**Q.** What about the IC50 (HCT116 cells) of the same compound?
**A.** 1 µM

**Q.** And the Accuracy [2, 4]?
**A.** 103.6%

**Q.** What about the “Measured concentration (mean ± SD)” value [2, 4] of the same compound?
**A.** 10.36 ± 0.75 ng/mL

**Q.** And the Accuracy [2, 5]?
**A.** 101.5%

**Q.** What about the “Measured concentration (mean ± SD)” value [2, 5] of the same compound?
**A.** 101.51 ± 6.43 ng/mL

**Q.** And the Accuracy [2, 6]?
**A.** 96.2%

**Q.** What about the “Measured concentration (mean ± SD)” value [2, 6] of the same compound?
**A.** 481.19 ± 42.98 ng/mL

**Q.** And the Accuracy [2, 7]?
**A.** 106.1%

**Q.** And the “Measured concentration (mean ± SD)” value [2, 7]?
**A.** 10.61 ± 0.55 ng/mL

**Q.** What about the Accuracy [2, 8] of the same compound?
**A.** 102.7%

**Q.** What about the “Measured concentration (mean ± SD)” value [2, 8] of the same compound?
**A.** 10.27 ± 0.56 ng/mL

**Q.** And the Accuracy [2, 9]?
**A.** 101.2%

**Q.** What about the “Measured concentration (mean ± SD)” value [2, 9] of the same compound?
**A.** 10.12 ± 0.66 ng/mL

**Q.** What about the Accuracy [2, 10] of the same compound?
**A.** 98.4%

**Q.** What about the “Measured concentration (mean ± SD)” value [2, 10] of the same compound?
**A.** 98.39 ± 7.52 ng/mL

**Q.** What about the Accuracy [2, 11] of the same compound?
**A.** 104.7%

**Q.** What about the “Measured concentration (mean ± SD)” value [2, 11] of the same compound?
**A.** 104.71 ± 5.16 ng/mL

**Q.** And the Accuracy [2, 12]?
**A.** 99.4%

**Q.** And the “Measured concentration (mean ± SD)” value [2, 12]?
**A.** 99.36 ± 6.92 ng/mL

**Q.** And the Accuracy [2, 13]?
**A.** 103.7%

**Q.** And the “Measured concentration (mean ± SD)” value [2, 13]?
**A.** 518.57 ± 43.30 ng/mL

**Q.** And the Accuracy [2, 14]?
**A.** 106.1%

**Q.** What about the “Measured concentration (mean ± SD)” value [2, 14] of the same compound?
**A.** 530.28 ± 34.32 ng/mL

**Q.** And the Accuracy [2, 15]?
**A.** 100.8%

**Q.** And the “Measured concentration (mean ± SD)” value [2, 15]?
**A.** 503.88 ± 33.79 ng/mL

**Q.** And the “Changes in concentrations after storage (stability in rat plasma)” value ([2]; room temperature 6 h, −20 °C 1 month, autosampler 24 h, three freeze-thaw cycles)?
**A.** No significant changes

Source: paper PMC6493276, “Quantification of 1D, a novel derivative of curcumin with potential antitumor activity, in rat plasma by liquid chromatography-tandem mass spectrometry: application to a pharmacokinetic study in rats” (Pharmaceutical Biology, 2019)
